Experiments:
Assay in all cases: Loewe additivity (CHALICE) synergy screen, CellTiter-Glo viability, 7x7 dose matrix
Assay type in all cases: cell-based
[1] = tested on: LAN-1 human neuroblastoma cells; set-up: key to Synergy score (Mean): Loewe excess inhibition synergy score; >0 synergistic; key to Max Combo Effect: growth inhibition scale; 100 = stasis; conditions: LAN-1 (F1174L)
Procedure: (§1) The synergistic interaction of drug combinations were assessed based on the Loewe Additivity Model using Chalice software [CombinatoRx, Cambridge Mass.]). […] 27:659-66. The software compares the response (% inhibition or % reduction of cell viability) of drug treatment from a combination of two agents to the response of the agents acting alone, against the drug-with-itself dose-additive reference model (the Loewe Additivity Model). Deviations from dose additives can be assessed numerically with a “synergy score” which quantifies the overall strength of combination effect. A synergy score >0 indicates a synergistic combination. In order to ensure only strongly synergistic combinations were selected, the acceptance criteria were set at a higher level. Strongly synergistic combinations were defined as having both a synergy score >2, a synergy score that is twice as large as the background (non-synergy) model would predict, and a maximum efficacy of >100, a value equivalent to stasis, as determined from the growth inhibition calculation.
(§2) After treatment, cell viabilty (quantity of viable cells) for each test mixtures were determined by the CellTiter-Glo® (CTG) luminescent cell viability assay (Promega) described in the Assay section, infra. […] The response to treatment (% reduction of cell viability) was analyzed using Chalice software [CombinatoRx, Cambridge Mass.]). Data evaluation and graph generation were performed using Microsoft Excel software and Chalice software.
The % inhibition (reduction in cell viability) by the drug treatments were recorded in the block In the dose matrix (left); the single agent treatment at the far left column and the bottom row, and the combinations in the remaining 6x6 combination blocks. The differences between the data in the dose matrix and the expected inhibition value generated by the Loewe model were reported in the Loewe Excess matrix. In this Excess Inhibition matrix, synergy is defined as values>0; that is inhibition greater than what would be expected from a simple additive interaction. Antagonism is defined as values<0; that is inhibition […] than what would be expected from a simple additive interaction. The synergy score for the drug treatments were computed taken into account of the entire 6×6 combination blocks within the matrix.
(§3) The combinations were tested in duplicate using a 7×7 dose matrix block in 1536 well format with a cell proliferation readout as described in the Assay section infra.
(§4) All synergy calculations were performed using CHALICE software package from Zalicus and potential synergistic interactions between compound combinations were assessed using the Excess Inhibition 2D matrix according to the Loewe additivity model and were reported as synergy score (Table 10) (Lehar et al). Strongly synergistic combination were identified as having both (1) a synergy score greater than 2, a synergy score that is twice as large as the background (non-synergy) model would predict, and (2) a maximum efficacy of >100, a value roughly equivalent to stasis, as determined from the growth inhibition calculation.
(§5) Cell viability were determined by measuring cellular ATP content using the CellTiter-Glo® (CTG) luminescent cell viability assay (Promega). […] Reduced and enhanced luminescent signal values (responses) were calculated relative to untreated (control) cells, and the calculated signal value proportional to the cell viability.
Synergistic combinations were identified based on the Loewe Addivity Model.

[2] = tested on: NGP human neuroblastoma cells; set-up: key to Synergy score (Mean): Loewe excess-inhibition synergy score; >0 synergistic, >2 strong; key to Max Combo Effect: growth inhibition scale; 100 = stasis; conditions: NGP (WT)
Procedure: The synergistic interaction of drug combinations were assessed based on the Loewe Additivity Model using Chalice software [CombinatoRx, Cambridge Mass.]). […] The software compares the response (% inhibition or % reduction of cell viability) of drug treatment from a combination of two agents to the response of the agents acting alone, against the drug-with-itself dose-additive reference model (the Loewe Additivity Model). Deviations from dose additives can be assessed numerically with a “synergy score” which quantifies the overall strength of combination effect. A synergy score >0 indicates a synergistic combination. In order to ensure only strongly synergistic combinations were selected, the acceptance criteria were set at a higher level. Strongly synergistic combinations were defined as having both a synergy score >2, a synergy score that is twice as large as the background (non-synergy) model would predict, and a maximum efficacy of >100, a value equivalent to stasis, as determined from the growth inhibition calculation.
as §2, §5
(§6) Synergistic combinations were identified based on the Loewe Addivity Model. To measure the effects of drug combinations on the cell viability, cells from the 20 cell lines listed in Table 1 above were seeded into 1536-well assay plates at a density 300 cells per well in a 7 μL final volume and incubated at 37° C. overnight in a GNF Systems incubator with 95% RH and 5% CO2.
(§7) Approximately 18 hours after plating, compound combinations were generated on the fly by transferring 7.5 nL of compound from the pre-diluted source plates using the Labcyte ECHO555 integrated onto the ACP-1 system with replicate plates per cell line; the final DMSO concentration per well was 0.2%. It is noted that the total volume in the wells was 7 μL.
(§8) The well at the intersection of the first column and first row which received no compound was dosed with 2×7.5 nL of DMSO and served as control.
Following compound addition, the plates were returned to the incubator for 120 hours. The effects of the combinations on cellular viability were assessed with the addition of Cell Titer Glo (Promega G7573) using one of the GNF Bottle Valve dispensers on the ACP-1 system; plates were then incubated at room temperature for ten minutes and read on the integrated Perkin Elmer Viewlux (2 second exposure, 2×bin, high sensitivity). The raw data was normalized using the DMSO-treated cell control well within each plate.
All synergy calculations were performed using CHALICE software from Zalicus. […] Potential synergistic interactions between compound combinations were assessed using the Excess Inhibition 2D matrix according to the Loewe Additivity Model and are reported as synergy score.
Compounds were combined with themselves to determine the effect of assay noise on the synergy assessment parameters of the expected dose-additive interaction. Synergistic combination hits (strongly synergistic) were identified as having both a synergy score >2, a synergy score that is twice as large as the background model (non-synergy) would predict, and a maximum efficacy of >100, a value equivalent to stasis, as determined from the growth inhibition calculation.

[3] = tested on: NB-1 human neuroblastoma cells; set-up: key to Max Combo Effect: growth inhibition scale; 100 = stasis; conditions: for Max Combo Effect: in % (unit assumed)
Procedure: as §1, §2, §3, §4, §5, §6
(§9) A six-point dose response curve for the test compounds were prepared in a 384 well ECHO compatible source plate (Labcyte P-05525) with 3-fold serial dilution series. For example, for a six-point dose response curve and a top compound concentration of 5 mM, the concentration of the compounds in the source well were 5 mM, 1.67 mM, 0.56 mM, 0.19 mM, 0.06 mM and 0.02 mM.
as §7, §8

[4] = tested on: NLF human neuroblastoma cells; set-up: key to Max Combo Effect: growth inhibition scale; 100 = stasis; conditions: NLF (WT)
Procedure: as §1, §2, §3, §4, §5, §6, §9, §7, §8

[5] = tested on: KELLY human neuroblastoma cells; set-up: key to Max Combo Effect: growth inhibition scale; 100 = stasis; conditions: KELLY (F1174L)
Procedure: as §1, §2, §3, §4, §5, §6, §9, §7, §8

Compound	Max Combo Effect ([1]; Table 2)	Max Combo Effect ([2]; Table 2)	Synergy score (Mean) ([2]; Table 2)	Synergy score (Mean) ([3]; NB-1 (WT Amp), Table 2)	Max Combo Effect ([3]; NB-1 (WT Amp), Table 2)	Max Combo Effect ([4]; Table 2)	Synergy score (Mean) ([4]; Table 2)	Max Combo Effect ([5]; Table 2)	Synergy score (Mean) ([5]; Table 2)	Max Combo Effect ([1]; Table 3)	Synergy score (Mean) ([1]; Table 3)	Max Combo Effect ([2]; Table 3)	Synergy score (Mean) ([2]; Table 3)	Synergy score (Mean) ([3]; NB-1 (WT_Amp), Table 3)	Max Combo Effect ([3]; NB-1 (WT_Amp), Table 3)	Max Combo Effect ([4]; Table 3)	Synergy score (Mean) ([4]; Table 3)	Max Combo Effect ([5]; Table 3)	Synergy score (Mean) ([5]; Table 3)	also measured
Cc1cc(Nc2ncc(Cl)c(Nc3ccccc3S(=O)(=O)C(C)C)n2)c(OC(C)C)cc1C1CCNCC1 [Compound A1, 5-chloro-N2-(2-isopropoxy-5-methyl-4-(piperidin-4-yl)phenyl)-N4-[2-(propane-2-sulfonyl)-phenyl]-pyrimidine-2,4-diamine]	114.2	104.1	0.822	1.607	181.9	27.1	0.152	97.7	0.900											Synergy score (Mean) ([1]; Table 2, listed as Cmpd A1 Self Cross): 1.011; Synergy score (Mean) ([1]; Table 2, listed as Cpd A1×A1): 1.01
CN(C)C(=O)c1cc2cnc(Nc3ccc(N4CCNCC4)cn3)nc2n1C1CCCC1 [Compound B, 7-cyclopentyl-N,N-dimethyl-2-((5-(piperazin-1-yl)pyridin-2-yl)amino)-7H-pyrrolo[2,3-d]pyrimidine-6-carboxamide]	142.3	31.2	0.084	1.429	111.0	43.9	0.122	60.5	0.255	62.78	0.25	17.0	0.01	0.34	40.57	45.7	0.54	27.66	0.19	
C[C@@H](Oc1cc(-c2cnn(C3CCNCC3)c2)cnc1N)c1c(Cl)ccc(F)c1Cl [Compound A3, (R)-3-(1-(2,6-dichloro-3-fluorophenyl)ethoxy)-5-(1-(piperidin-4-yl)-1H-pyrazol-4-yl)pyridin-2-amine, reference compound]										77.73	0.63	11.39	0.01			29.10	0.08	134.74	0.47	
Cc1cc(Nc2nc(Nc3ccccc3S(=O)(=O)C(C)C)c3cn[nH]c3n2)c(OC(C)C)cc1C1CCN(C)CC1 [Compound A2, N6-(2-isopropoxy-5-methyl-4-(1-methylpiperidin-4-yl)phenyl)-N4-(2-(isopropylsulfonyl)phenyl)-1H-pyrazolo[3,4-d]pyrimidine-4,6-diamine]												184.04	0.84	identified as synergistic	193.34	183.68	0.63	191.61	0.64	Synergy score (Mean) ([3]; NB-1 (WT_Amp), Table 3, listed as Cmpd A2 Self Cross): 2.97
